ChEMBL document CHEMBL4507286 (2021)

Tests used:
[1] = biological target: Serine/threonine-protein kinase WNK1 (Homo sapiens) (UniProt Q9H4A3)
[2] = biological target: Kappa-type opioid receptor (Homo sapiens) (UniProt P41145); details: Compound concentration 10.0 uM
[3] = biological target: Mitogen-activated protein kinase kinase kinase 13 (Homo sapiens) (UniProt O43283)
[4] = biological target: ALK tyrosine kinase receptor (Homo sapiens) (UniProt Q9UM73)
[5] = biological target: Calcium-dependent protein kinase 1 (Plasmodium falciparum) (UniProt P62344)
[6] = tested on: Tyrosine-protein kinase ABL1 (Homo sapiens), P00519 [M351T]
[7] = tested on: Epidermal growth factor receptor (Homo sapiens), P00533 [UNDEFINED MUTATION]
Chain of Epidermal growth factor receptor (Homo sapiens), P00533 [UNDEFINED MUTATION] (P00533 whole entry, looked up, change not shown): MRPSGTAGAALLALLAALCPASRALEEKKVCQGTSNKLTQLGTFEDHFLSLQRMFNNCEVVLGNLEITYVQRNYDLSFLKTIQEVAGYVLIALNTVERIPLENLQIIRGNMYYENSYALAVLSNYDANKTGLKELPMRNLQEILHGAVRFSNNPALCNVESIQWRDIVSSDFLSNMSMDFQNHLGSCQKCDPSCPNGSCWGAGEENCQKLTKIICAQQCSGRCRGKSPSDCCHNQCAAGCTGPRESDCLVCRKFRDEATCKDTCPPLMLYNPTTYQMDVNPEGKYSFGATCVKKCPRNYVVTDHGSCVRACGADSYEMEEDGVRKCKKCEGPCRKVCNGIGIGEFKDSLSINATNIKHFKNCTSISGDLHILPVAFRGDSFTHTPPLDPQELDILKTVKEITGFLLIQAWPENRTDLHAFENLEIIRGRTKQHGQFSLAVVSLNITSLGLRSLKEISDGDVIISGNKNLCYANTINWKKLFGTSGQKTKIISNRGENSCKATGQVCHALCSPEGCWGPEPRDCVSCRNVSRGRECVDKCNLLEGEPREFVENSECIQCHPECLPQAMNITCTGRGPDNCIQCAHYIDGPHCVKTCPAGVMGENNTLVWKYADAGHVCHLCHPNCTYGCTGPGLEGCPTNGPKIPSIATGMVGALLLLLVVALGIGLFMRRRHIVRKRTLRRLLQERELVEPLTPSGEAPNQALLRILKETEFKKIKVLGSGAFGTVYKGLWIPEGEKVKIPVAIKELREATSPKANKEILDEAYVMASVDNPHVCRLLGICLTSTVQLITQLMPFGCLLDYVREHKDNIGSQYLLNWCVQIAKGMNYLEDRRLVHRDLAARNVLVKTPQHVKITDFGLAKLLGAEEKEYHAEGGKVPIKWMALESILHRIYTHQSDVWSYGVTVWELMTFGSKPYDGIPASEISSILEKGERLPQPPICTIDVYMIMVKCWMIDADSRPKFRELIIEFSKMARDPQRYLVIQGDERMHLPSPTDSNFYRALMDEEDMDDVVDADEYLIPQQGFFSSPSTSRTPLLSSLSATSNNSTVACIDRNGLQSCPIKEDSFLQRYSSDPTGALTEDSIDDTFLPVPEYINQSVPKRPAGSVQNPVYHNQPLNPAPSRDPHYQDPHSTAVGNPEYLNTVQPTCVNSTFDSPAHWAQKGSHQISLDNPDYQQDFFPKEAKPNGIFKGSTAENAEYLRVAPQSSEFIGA

[8] = biological target: Beta-3 adrenergic receptor (Homo sapiens) (UniProt P13945); details: Compound concentration 10.0 uM
Chain of Beta-3 adrenergic receptor (Homo sapiens) (P13945 whole entry, looked up): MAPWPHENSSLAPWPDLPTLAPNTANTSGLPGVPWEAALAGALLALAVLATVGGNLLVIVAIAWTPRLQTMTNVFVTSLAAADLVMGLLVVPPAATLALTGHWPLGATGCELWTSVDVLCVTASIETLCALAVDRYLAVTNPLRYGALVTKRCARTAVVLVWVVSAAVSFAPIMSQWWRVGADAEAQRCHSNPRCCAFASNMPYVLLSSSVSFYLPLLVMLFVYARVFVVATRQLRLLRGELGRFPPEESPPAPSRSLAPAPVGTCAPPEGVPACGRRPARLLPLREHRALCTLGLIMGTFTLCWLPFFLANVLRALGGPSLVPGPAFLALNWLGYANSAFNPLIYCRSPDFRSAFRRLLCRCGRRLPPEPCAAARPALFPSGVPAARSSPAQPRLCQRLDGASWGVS

[9] = biological target: 5-hydroxytryptamine receptor 7 (Homo sapiens) (UniProt P34969); details: Compound concentration 10.0 uM
[10] = biological target: Dual specificity protein kinase TTK (Homo sapiens) (UniProt P33981)
[11] = biological target: Tyrosine-protein kinase FRK (Homo sapiens) (UniProt P42685)
[12] = biological target: Muscle, skeletal receptor tyrosine-protein kinase (Homo sapiens) (UniProt O15146)
[13] = biological target: Ribosomal protein S6 kinase alpha-6 (Homo sapiens) (UniProt Q9UK32)
[14] = biological target: Serine/threonine-protein kinase tousled-like 1 (Homo sapiens) (UniProt Q9UKI8)
[15] = biological target: RAF proto-oncogene serine/threonine-protein kinase (Homo sapiens) (UniProt P04049)
[16] = biological target: Mitogen-activated protein kinase 10 (Homo sapiens) (UniProt P53779)
[17] = tested on: Epidermal growth factor receptor (Homo sapiens), P00533 [UNDEFINED MUTATION]; remark: listed apart in the source
[18] = biological target: Fibroblast growth factor receptor 4 (Homo sapiens) (UniProt P22455)
Chain of Fibroblast growth factor receptor 4 (Homo sapiens) (P22455 22-802 limits assumed): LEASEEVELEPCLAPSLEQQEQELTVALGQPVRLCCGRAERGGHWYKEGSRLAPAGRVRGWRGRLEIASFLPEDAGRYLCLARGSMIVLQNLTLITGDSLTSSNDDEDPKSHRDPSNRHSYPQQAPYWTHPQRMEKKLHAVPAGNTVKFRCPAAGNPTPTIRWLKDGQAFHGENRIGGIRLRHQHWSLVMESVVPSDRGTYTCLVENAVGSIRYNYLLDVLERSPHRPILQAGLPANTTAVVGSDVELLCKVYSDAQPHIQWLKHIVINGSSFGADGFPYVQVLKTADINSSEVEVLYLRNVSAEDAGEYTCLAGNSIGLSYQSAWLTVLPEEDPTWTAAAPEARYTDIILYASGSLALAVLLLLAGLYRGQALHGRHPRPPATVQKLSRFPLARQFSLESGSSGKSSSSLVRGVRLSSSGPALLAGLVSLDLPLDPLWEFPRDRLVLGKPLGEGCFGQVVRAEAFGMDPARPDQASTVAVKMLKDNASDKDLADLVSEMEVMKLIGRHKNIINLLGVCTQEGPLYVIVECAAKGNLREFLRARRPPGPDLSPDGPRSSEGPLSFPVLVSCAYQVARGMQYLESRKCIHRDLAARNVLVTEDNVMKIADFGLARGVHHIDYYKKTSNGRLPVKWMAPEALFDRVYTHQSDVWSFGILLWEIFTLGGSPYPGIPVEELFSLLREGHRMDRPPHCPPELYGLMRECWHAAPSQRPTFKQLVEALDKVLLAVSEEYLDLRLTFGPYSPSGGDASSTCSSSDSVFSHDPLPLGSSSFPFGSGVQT

[19] = biological target: Glycogen synthase kinase-3 alpha (Homo sapiens, UniProt P49840)
[20] = biological target: Receptor tyrosine-protein kinase erbB-2 (Homo sapiens) (UniProt P04626)
Chain of Receptor tyrosine-protein kinase erbB-2 (Homo sapiens) (P04626 whole entry): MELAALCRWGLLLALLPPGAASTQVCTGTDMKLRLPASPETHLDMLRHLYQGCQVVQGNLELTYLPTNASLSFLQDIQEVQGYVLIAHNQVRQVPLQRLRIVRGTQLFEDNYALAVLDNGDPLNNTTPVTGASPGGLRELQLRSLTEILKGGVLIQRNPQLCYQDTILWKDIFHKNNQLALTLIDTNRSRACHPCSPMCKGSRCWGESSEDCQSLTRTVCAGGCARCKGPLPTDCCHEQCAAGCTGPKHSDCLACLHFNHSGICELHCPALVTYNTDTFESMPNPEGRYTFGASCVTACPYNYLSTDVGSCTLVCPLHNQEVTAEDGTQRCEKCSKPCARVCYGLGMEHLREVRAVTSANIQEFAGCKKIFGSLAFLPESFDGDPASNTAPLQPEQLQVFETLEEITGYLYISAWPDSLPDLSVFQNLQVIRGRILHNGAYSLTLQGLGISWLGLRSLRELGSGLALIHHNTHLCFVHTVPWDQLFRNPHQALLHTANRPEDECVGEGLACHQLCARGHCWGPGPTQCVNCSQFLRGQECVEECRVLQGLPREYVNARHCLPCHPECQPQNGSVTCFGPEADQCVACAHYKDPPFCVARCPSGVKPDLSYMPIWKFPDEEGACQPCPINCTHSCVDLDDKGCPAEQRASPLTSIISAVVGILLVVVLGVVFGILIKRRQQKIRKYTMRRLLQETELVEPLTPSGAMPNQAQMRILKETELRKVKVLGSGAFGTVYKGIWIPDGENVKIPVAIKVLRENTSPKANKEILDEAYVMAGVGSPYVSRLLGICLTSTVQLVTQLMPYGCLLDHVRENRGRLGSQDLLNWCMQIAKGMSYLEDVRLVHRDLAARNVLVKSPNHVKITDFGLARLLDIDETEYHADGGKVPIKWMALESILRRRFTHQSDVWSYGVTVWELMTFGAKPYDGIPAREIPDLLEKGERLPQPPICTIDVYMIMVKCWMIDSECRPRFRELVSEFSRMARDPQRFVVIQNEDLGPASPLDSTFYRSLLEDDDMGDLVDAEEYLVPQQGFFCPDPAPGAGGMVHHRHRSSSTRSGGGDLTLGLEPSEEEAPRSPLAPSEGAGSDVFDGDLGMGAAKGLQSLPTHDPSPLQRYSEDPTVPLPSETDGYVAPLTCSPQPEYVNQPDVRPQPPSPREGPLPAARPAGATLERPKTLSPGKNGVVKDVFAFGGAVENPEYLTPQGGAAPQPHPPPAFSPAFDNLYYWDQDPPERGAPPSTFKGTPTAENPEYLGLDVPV

[21] = biological target: Dual specificity mitogen-activated protein kinase kinase 3 (Homo sapiens) (UniProt P46734)
[22] = biological target: Ephrin type-A receptor 8 (Homo sapiens) (UniProt P29322)
[23] = biological target: Serine/threonine-protein kinase PRP4 homolog (Homo sapiens) (UniProt Q13523)
[24] = biological target: Serine/threonine-protein kinase Nek1 (Homo sapiens) (UniProt Q96PY6)
[25] = tested on: Phosphatidylinositol 4,5-bisphosphate 3-kinase catalytic subunit alpha isoform (Homo sapiens), P42336 [H1047Y]
[26] = tested on: Phosphatidylinositol 4,5-bisphosphate 3-kinase catalytic subunit alpha isoform (Homo sapiens), P42336 [C420R]
[27] = biological target: Phosphorylase b kinase gamma catalytic chain, skeletal muscle/heart isoform (Homo sapiens) (UniProt Q16816)
[28] = biological target: Tyrosine-protein kinase Mer (Homo sapiens) (UniProt Q12866)
[29] = biological target: Serine/threonine-protein kinase MAK (Homo sapiens) (UniProt P20794)
[30] = biological target: Membrane-associated tyrosine- and threonine-specific cdc2-inhibitory kinase (Homo sapiens) (UniProt Q99640)
[31] = biological target: Tyrosine-protein kinase ITK/TSK (Homo sapiens) (UniProt Q08881)
[32] = biological target: Serine/threonine-protein kinase SIK3 (Homo sapiens) (UniProt Q9Y2K2)
[33] = biological target: Activin receptor type-2B (Homo sapiens) (UniProt Q13705)
[34] = biological target: Phosphatidylinositol 4-phosphate 5-kinase type-1 gamma (Homo sapiens) (UniProt O60331)
[35] = biological target: Casein kinase I isoform epsilon (Homo sapiens) (UniProt P49674)
[36] = biological target: Serine/threonine-protein kinase D2 (Homo sapiens) (UniProt Q9BZL6)
[37] = biological target: Myosin light chain kinase 2, skeletal/cardiac muscle (Homo sapiens) (UniProt Q9H1R3)
Chain of Myosin light chain kinase 2, skeletal/cardiac muscle (Homo sapiens) (Q9H1R3 whole entry): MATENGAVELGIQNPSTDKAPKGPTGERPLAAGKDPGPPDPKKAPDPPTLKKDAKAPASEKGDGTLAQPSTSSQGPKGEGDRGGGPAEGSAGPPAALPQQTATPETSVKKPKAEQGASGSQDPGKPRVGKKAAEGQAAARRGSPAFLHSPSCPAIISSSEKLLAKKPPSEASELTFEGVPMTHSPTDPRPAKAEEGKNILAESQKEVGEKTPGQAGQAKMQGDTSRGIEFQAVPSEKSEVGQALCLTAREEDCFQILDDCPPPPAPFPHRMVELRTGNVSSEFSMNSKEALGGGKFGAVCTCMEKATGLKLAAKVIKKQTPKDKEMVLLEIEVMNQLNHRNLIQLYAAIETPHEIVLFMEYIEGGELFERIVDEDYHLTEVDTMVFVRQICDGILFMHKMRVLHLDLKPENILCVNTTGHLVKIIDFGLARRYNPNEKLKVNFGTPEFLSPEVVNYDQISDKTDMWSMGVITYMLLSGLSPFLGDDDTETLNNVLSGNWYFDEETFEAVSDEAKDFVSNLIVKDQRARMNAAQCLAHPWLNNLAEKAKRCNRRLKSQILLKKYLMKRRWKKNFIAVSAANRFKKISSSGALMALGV

[38] = biological target: Mitogen-activated protein kinase kinase kinase 5 (Homo sapiens) (UniProt Q99683)
[39] = biological target: Histamine H2 receptor (Homo sapiens) (UniProt P25021); details: Compound concentration 10.0 uM
[40] = biological target: Mitogen-activated protein kinase 12 (Homo sapiens) (UniProt P53778)
Chain of Mitogen-activated protein kinase 12 (Homo sapiens) (P53778 whole entry): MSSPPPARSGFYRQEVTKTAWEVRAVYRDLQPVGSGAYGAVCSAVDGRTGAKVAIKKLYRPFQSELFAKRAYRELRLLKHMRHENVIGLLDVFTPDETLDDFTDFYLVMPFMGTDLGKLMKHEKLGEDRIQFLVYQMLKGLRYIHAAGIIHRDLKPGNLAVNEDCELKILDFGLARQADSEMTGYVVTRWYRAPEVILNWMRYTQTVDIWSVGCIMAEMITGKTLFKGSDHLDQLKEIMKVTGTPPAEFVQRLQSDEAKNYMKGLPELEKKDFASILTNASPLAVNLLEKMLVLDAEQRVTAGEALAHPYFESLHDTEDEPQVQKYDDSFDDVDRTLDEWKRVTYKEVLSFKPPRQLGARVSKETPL

[41] = biological target: Serine/threonine-protein kinase WNK3 (Homo sapiens) (UniProt Q9BYP7)
[42] = tested on: Tyrosine-protein kinase ABL1 (Homo sapiens), P00519 [Q252H]
[43] = biological target: Mitogen-activated protein kinase kinase kinase 6 (Homo sapiens) (UniProt O95382)
[44] = biological target: Mitogen-activated protein kinase kinase kinase kinase 2 (Homo sapiens) (UniProt Q12851)
[45] = biological target: Dual serine/threonine and tyrosine protein kinase (Homo sapiens) (UniProt Q6XUX3)
[46] = Compound concentration 1000.0 nM
[47] = Compound concentration 100.0 nM

Chain of Kappa-type opioid receptor (Homo sapiens) (P41145 whole entry): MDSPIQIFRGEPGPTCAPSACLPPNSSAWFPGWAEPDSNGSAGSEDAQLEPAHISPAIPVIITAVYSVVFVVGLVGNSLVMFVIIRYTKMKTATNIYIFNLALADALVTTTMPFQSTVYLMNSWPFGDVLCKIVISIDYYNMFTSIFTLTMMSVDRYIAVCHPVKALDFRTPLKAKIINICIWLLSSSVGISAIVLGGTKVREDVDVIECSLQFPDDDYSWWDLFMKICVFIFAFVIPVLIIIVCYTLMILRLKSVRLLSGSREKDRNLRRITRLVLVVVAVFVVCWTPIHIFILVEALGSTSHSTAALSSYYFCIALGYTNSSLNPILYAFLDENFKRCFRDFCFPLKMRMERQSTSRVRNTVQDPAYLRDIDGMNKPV

Compound `C[C@H](NC(=O)Nc1cc2[nH]ncc2c(CO)n1)c1ccccn1` [ERKi-NC] has a residual activity [1, 46] of 100%, an inhibition [2] of 22.9% and a residual activity [3, 46] of 100%. For the same compound, the residual activity [4, 46] was 85.4%, the residual activity [5, 46] was 77.4% and the residual activity [6, 46] was 89.8%. It also gave a residual activity [7, 46] of 100%, an inhibition [8] of 13.6% and an inhibition [9] of 33.4%. It also gave a residual activity [10, 46] of 80.3%, a residual activity [11, 46] of 100% and a residual activity [12, 46] of 100%. It also gave a residual activity [13, 46] of 100%, a residual activity [14, 46] of 100% and a residual activity [15, 46] of 90.2%. The residual activity [16, 46] was 74.6%, the residual activity [17, 46] was 34.7% and the residual activity [18, 46] was 100%. It also gave a residual activity [19, 46] of 100%, a residual activity [20, 46] of 100% and a residual activity [21, 46] of 76.3%. It also gave a residual activity [22, 46] of 100%, a residual activity [23, 46] of 100% and a residual activity [24, 46] of 100%. It also gave a residual activity [25, 46] of 34.6%, a residual activity [26, 46] of 97.1% and a residual activity [27, 46] of 96.3%. It also gave a residual activity [28, 46] of 100%, a residual activity [29, 46] of 84.1% and a residual activity [30, 46] of 100%. For the same compound, the residual activity [31, 46] was 100%, the residual activity [32, 46] was 100% and the residual activity [33, 46] was 86.2%. The residual activity [34, 46] was 99.3%, the residual activity [35, 46] was 96.1% and the residual activity [36, 46] was 100%. It also gave a residual activity [37, 46] of 76.6%, a residual activity [38, 46] of 100% and an inhibition [39] of 3.05%. It also gave a residual activity [40, 46] of 48.4%, a residual activity [41, 46] of 100% and a residual activity [42, 46] of 100%. For the same compound, the residual activity [43, 46] was 67.4%, the residual activity [44, 46] was 100% and the residual activity [45, 46] was 100%.
`C[C@@H](NC(=O)Nc1cc2[nH]ncc2c(CO)n1)c1ccccc1` [ERKi] showed a residual activity [1, 47] of 90.8%, an inhibition [2] of 10.3% and a residual activity [3, 47] of 100%. The residual activity [4, 47] was 89.9%, the residual activity [5, 47] was 82.9% and the residual activity [6, 47] was 100%. The residual activity [7, 47] was 92.2%, the inhibition [8] was 24.1% and the inhibition [9] was 21.8%. The residual activity [10, 47] was 85.2%, the residual activity [11, 47] was 82.2% and the residual activity [12, 47] was 86.8%. For the same compound, the residual activity [13, 47] was 83.4%, the residual activity [14, 47] was 80.3% and the residual activity [15, 47] was 100%. The residual activity [16, 47] was 68.1%, the residual activity [17, 47] was 55.9% and the residual activity [18, 47] was 100%. It also gave a residual activity [19, 47] of 88%, a residual activity [20, 47] of 100% and a residual activity [21, 47] of 77%. It also gave a residual activity [22, 47] of 89.8%, a residual activity [23, 47] of 89.7% and a residual activity [24, 47] of 74.1%. The residual activity [25, 47] was 75.7%, the residual activity [26, 47] was 89.2% and the residual activity [27, 47] was 84.1%. The residual activity [28, 47] was 100%, the residual activity [29, 47] was 97.9% and the residual activity [30, 47] was 99.6%. For the same compound, the residual activity [31, 47] was 83.2%, the residual activity [32, 47] was 79.6% and the residual activity [33, 47] was 87.6%. For the same compound, the residual activity [34, 47] was 89.9%, the residual activity [35, 47] was 95.1% and the residual activity [36, 47] was 97.5%. The residual activity [37, 47] was 100%, the residual activity [38, 47] was 100% and the inhibition [39] was 11.8%. The residual activity [40, 47] was 80.7%, the residual activity [41, 47] was 47.3% and the residual activity [42, 47] was 67.8%. For the same compound, the residual activity [43, 47] was 99.3%, the residual activity [44, 47] was 78.3% and the residual activity [45, 47] was 91.6%.
